From ChEMBL document CHEMBL6153041, “Discovery of High-Affinity SMARCA2/4 Bromodomain Ligands and Development of Potent and Exceptionally Selective SMARCA2 PROTAC Degraders” (J Med Chem, 2025)

Columns and labels:
[1] = biological target: SWI/SNF-related matrix-associated actin-dependent regulator of chromatin subfamily A member 4 (Homo sapiens, UniProt P51532); assay: Binding affinity to SMARCA4 (unknown origin) assessed as dissociation constant
[2] = biological target: von Hippel-Lindau disease tumor suppressor/SWI/SNF-related matrix-associated actin-dependent regulator of chromatin subfamily A member 2 (Homo sapiens, UniProt P51531+P40337); assay: PROTAC activity at VHL/SMARCA2 in human MV4-11 cells assessed as maximal degradation relative to control; format: cell-based
[3] = biological target: T1, von Hippel-Lindau disease tumor suppressor/SWI/SNF-related matrix-associated actin-dependent regulator of chromatin subfamily A member 4 (Homo sapiens, UniProt P51532+P40337); assay: PROTAC activity at VHL/SMARCA4 in human MV4-11 cells assessed as maximal degradation relative to control; format: cell-based
[4] = biological target: T1, von Hippel-Lindau disease tumor suppressor/SWI/SNF-related matrix-associated actin-dependent regulator of chromatin subfamily A member 4; assay: PROTAC activity at VHL/SMARCA4 in human MV4-11 cells assessed as degradation; format: cell-based

T1 sequence (P40337 whole entry, looked up): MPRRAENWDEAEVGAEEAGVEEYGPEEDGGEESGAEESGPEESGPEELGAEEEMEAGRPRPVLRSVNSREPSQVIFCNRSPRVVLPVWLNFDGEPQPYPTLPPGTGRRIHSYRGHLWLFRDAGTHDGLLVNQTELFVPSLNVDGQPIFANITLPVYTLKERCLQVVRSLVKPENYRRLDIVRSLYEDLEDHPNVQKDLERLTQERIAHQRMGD
T1 sequence (P51532 whole entry, looked up): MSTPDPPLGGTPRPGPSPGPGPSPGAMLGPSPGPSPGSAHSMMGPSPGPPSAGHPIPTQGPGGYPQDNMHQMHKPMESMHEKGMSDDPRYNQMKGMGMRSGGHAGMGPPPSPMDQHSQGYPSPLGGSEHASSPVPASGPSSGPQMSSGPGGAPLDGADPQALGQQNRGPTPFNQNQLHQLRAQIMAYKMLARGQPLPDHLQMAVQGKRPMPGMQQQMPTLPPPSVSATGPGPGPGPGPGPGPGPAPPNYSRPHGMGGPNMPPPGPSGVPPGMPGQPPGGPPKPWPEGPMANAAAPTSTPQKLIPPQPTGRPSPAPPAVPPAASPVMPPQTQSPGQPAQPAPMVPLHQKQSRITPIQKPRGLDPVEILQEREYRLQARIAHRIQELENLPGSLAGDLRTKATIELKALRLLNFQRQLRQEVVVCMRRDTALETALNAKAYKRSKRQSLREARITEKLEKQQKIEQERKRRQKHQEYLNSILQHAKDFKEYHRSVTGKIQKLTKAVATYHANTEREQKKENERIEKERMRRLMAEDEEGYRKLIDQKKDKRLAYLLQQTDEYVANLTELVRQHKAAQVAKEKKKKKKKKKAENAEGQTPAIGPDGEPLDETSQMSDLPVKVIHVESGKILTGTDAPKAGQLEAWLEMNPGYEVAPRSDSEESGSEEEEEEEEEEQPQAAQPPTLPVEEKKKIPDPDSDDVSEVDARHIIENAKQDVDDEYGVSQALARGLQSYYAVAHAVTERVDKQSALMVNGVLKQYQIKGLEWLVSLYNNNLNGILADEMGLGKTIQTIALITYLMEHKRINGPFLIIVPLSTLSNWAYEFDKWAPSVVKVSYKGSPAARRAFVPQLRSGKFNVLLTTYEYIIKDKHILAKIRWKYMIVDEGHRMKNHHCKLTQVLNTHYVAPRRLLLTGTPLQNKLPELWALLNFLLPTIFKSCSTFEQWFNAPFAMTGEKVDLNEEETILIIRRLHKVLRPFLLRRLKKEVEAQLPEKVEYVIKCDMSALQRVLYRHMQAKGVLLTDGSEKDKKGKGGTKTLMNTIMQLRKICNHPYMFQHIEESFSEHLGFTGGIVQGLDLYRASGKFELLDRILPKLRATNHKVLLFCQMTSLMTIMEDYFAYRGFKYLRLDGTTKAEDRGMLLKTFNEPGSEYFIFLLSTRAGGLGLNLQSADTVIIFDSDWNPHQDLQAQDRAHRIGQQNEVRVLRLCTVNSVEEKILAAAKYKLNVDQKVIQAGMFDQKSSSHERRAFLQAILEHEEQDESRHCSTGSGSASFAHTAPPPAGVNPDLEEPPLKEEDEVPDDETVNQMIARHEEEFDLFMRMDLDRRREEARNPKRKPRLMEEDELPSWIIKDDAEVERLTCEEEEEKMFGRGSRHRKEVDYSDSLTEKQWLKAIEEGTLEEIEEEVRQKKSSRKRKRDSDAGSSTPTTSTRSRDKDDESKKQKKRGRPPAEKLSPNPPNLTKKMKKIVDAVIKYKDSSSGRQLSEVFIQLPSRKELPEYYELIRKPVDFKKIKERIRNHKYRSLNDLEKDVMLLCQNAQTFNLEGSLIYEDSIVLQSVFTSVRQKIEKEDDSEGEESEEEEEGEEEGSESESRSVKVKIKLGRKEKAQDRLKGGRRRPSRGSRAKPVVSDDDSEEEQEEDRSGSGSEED
SWI/SNF-related matrix-associated actin-dependent regulator of chromatin subfamily A member 4, sequence (P51532 whole entry): as the sequence (P51532 whole entry, looked up) above
von Hippel-Lindau disease tumor suppressor/SWI/SNF-related matrix-associated actin-dependent regulator of chromatin subfamily A member 2, sequence (P51531 whole entry): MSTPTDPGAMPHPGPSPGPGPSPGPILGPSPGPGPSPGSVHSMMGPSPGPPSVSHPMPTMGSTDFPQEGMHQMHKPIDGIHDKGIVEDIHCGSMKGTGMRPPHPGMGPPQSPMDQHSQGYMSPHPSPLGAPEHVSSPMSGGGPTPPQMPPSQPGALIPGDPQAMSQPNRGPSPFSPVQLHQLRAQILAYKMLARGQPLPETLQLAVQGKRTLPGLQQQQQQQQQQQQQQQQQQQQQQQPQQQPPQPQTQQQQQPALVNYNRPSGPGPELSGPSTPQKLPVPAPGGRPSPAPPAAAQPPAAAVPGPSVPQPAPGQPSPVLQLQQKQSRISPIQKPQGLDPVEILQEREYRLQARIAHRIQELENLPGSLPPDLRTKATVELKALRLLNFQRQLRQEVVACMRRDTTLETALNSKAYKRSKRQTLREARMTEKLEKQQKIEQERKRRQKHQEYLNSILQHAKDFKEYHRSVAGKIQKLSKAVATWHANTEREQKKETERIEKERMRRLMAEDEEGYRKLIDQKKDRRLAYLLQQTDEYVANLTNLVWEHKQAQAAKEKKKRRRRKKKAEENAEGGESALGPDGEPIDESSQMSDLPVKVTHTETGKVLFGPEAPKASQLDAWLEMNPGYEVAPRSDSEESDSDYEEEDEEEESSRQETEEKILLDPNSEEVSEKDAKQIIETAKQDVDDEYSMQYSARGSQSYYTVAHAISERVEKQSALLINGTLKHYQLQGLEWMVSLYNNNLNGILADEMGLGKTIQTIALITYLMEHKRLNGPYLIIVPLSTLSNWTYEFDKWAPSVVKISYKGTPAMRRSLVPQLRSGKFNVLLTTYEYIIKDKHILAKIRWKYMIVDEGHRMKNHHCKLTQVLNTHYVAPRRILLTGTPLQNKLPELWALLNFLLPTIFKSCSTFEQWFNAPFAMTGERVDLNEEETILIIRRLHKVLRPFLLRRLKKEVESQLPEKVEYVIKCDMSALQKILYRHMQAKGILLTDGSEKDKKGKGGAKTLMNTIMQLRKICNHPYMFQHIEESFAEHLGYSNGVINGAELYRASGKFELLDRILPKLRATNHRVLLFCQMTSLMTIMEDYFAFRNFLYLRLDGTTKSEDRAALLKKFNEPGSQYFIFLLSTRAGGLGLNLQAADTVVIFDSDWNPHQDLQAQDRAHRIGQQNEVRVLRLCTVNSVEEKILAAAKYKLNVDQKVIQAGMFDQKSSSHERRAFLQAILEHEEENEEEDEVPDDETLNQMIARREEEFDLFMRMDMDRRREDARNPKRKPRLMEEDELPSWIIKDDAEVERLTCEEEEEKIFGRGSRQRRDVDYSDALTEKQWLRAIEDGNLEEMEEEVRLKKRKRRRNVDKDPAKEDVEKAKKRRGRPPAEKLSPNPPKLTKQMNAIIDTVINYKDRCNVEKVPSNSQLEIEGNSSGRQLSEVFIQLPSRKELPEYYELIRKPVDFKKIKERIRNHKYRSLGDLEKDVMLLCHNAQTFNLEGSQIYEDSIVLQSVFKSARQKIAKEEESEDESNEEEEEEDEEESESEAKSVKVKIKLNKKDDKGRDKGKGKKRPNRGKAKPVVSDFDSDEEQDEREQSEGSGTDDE
von Hippel-Lindau disease tumor suppressor/SWI/SNF-related matrix-associated actin-dependent regulator of chromatin subfamily A member 2, sequence (P40337 whole entry): as the sequence (P40337 whole entry, looked up) above

SMILES	Kd [1]	DC50 [2]	Emax [3]	Emax [4]
Cn1cc(-c2cc(-c3ccccc3O)nnc2N)cn1	12.8 nM			
Cc1ncsc1-c1ccc(CNC(=O)[C@@H]2C[C@@H](O)CN2C(=O)[C@@H](NC(=O)C2(F)CC2)C(C)(C)C)c(OCCOc2ccc(CN3CCN(c4cc(-c5ccccc5O)nnc4N)CC3)cc2)c1		11 nM	> 95%	> 95%
